We go through 67 compounds from the pKa sets of Baltruschat and Czodrowski (2020).

Where a SMILES comes first, the peptide text is derived from it. [ ]: non-standard residue; d: D form. pGlu = O=C1CC[C@@H](C(=O)O)N1

`N[C@H]1C[C@H]2CCCC[C@@H]2C[C@@H]1[NH3+]`: the pKa (basic group) is 6.68.
For the compound `Oc1ccc(F)cc1CN1CCOCC1`, the pKa (acidic group) came to 10.5 and the pKa (basic group) was determined as 6.78.
`CC([NH3+])C/C(N)=N/O` (stereo not given) came in with a pKa (basic group) of 3.75.
For the compound `N#CC(C#N)=C(O)c1ccc(N)cc1`, the pKa (acidic group) stood at 4.28.
Regarding `OCCNC1CCN(Cc2ccccc2)CC1`, the pKa (basic group) was determined as 9.24.
`Cc1ccc(S(=O)O)cc1`: for the setting “acidic group”, the pKa amounted to 1.82.
Turning to `NC1=[NH+][C@@H](CC(=O)O)C(=O)N1CCCC([NH3+])C(=O)O` (stereo not given in full), for the setting “acidic group”, the pKa is 1.86.
Turning to `c1ccc(-c2cc(-c3ccccc3)c(NCC[NH+]3CCOCC3)nn2)cc1`, the pKa (basic group) amounted to 3.36.
With `C=CC[NH2+]CCCCCCCCCCC(=O)O`, the pKa (acidic group) was 4.7.
On the same count and under the same terms, the result for `CCCc1nnn[nH]1` reads 5.61; that for `COc1c(C)cc2c(c1C(=O)O)COC2`, 3.13.
Consider `CCC(=O)C(c1ccccc1)(c1ccccc1)[C@@H](C)CN(C)C`, for which the pKa (basic group) worked out at 8.07.
The compound `ONc1ccc(O)cc1` yielded a pKa (acidic group) of 9.83.
On the same count and under the same terms, in the case of `CC(I)[N+](=O)[O-]` (stereo not given) it was 7.24.
`CN(C)CCN(C)C` came in with a pKa (basic group) of 9.15.
Still for that read-out and setting: in the case of `[S-]c1cnc2ccccc2[nH+]1` it was -1.11; in that of `CN(C)CCCCCCCNC(=O)/C=N/[O-]`, 10.5; in that of `CN1CCC2=C(C1)C(c1ccccc1)c1ccccc12` (stereo not given), 8.29.
The compound `C[n+]1ccc2c(O)cccc2c1` had a pKa (acidic group) of 6.9.
`[O-]c1nc([O-])c2[nH]nnc2n1` showed a pKa (basic group) of 9.3.
Turning to `O=C1[N-]C(=O)/C(=N/O)C(=O)N1`, the pKa (acidic group) came to 10.1.
In the case of `O=C(/C=C/c1c[nH]cn1)OCCCl`, the pKa (basic group) was 4.8.
Same read-out and setting: the result for `COc1cccnn1` reads 2.52.
On the same count and under the same terms, the result for `CC(=O)Nc1cccc2nc3ccccc3cc12` reads 4.4.
Take `O/C(=C/c1ccccn1)c1ccccc1`: the pKa reads like this: (acidic group) 12.2; (basic group) 3.57.
In turn, `NC(=S=O)c1ccccc1` returned a pKa (basic group) of 0.8.
On the same count and under the same terms, in the case of `N=C(N)NOCC(=O)[O-]` it was 7.58.
On to `Cn1cnc2nc(N)[nH+]c(O)c21`, for which the pKa (acidic group) was 3.57.
On the same count and under the same terms, in the case of `Cc1ccc2ccc(O)cc2c1` it was 9.52.
For `CC(N)CCCc1ccc(O)cc1` (stereo not given), the pKa (basic group) turned out to be 9.4.
Compound `Cc1nc2cc([N+](=O)[O-])ccc2[nH]1` came in with a pKa (basic group) of 5.16.
Still for that read-out and setting: in the case of `CNCc1ccccc1` it was 9.64; in that of `Cc1cc(C)nc(N)n1`, 4.93.
As to `C[C@H](NC(=O)[C@H](CCC(N)=O)NC(=O)[C@@H]1CCC(=O)N1)C(=O)O` ([pGlu]-Gln-Ala-OH), the pKa (acidic group) came to 3.67.
The compound `Oc1cc(Cl)c(Cl)c(Cl)c1` displayed a pKa (acidic group) of 7.7.
Same read-out and setting: the result for `N#CC(c1ccccc1)c1ccc([N+](=O)[O-])cc1` (stereo not given) reads 10.9.
Where the note is “basic group”, `[NH3+]C1CCN(Cc2ccccc2)CC1` gave a pKa of 7.05.
On the same count and under the same terms, the result for `Cc1ccccc1NC(=O)CN` reads 7.81.
Under “acidic group”, `O=C(NO)c1cccc([N+](=O)[O-])c1` gave a pKa of 8.07.
The same measure, in the same setting: the result for `O=C(NO)c1ccncc1` reads 7.82.
`CN(C)c1ccc(/N=N/c2cccc[nH+]2)cc1` gave a pKa (basic group) of 2.
Still for that read-out and setting: the result for `Nc1cc[nH]n1` reads 4.11.
`NC(=O)NOCC(=O)O` returned a pKa (acidic group) of 2.6.
In the case of `Nc1n[nH]c(N)c1/N=N/c1ccccc1O`, the pKa is, setting by setting: (acidic group) 8.22; (basic group) 3.51.
In turn, `CN[C@H]1C[C@@H]1[NH2+]C` showed a pKa (basic group) of 5.65.
The same measure, in the same setting: in the case of `Cc1cnc2c(cc(C)c3c(C)ccnc32)c1C` it was 6.45.
In turn, `CCCCCCc1c(-c2ccccc2)nn(-c2ccccc2)c1O` displayed a pKa (acidic group) of 7.4.
The same measure, in the same setting: the result for `[NH3+][C@@H](CCCCN1C(=O)C[C@H]([NH3+])C1=O)C(=O)O` reads 2.5.
For the setting “basic group”, `N#Cc1cc(-c2ccccc2)nnc1NCC[NH+]1CCOCC1` gave a pKa of 0.5.
Turning to `CC/C(N=O)=N/O`, where the note is “acidic group”, the pKa turned out to be 5.8.
For `Cn1cnc2cccc(N)c21`, under “basic group”, the pKa came to 5.79.
Compound `C[NH2+]CC(=O)NCCc1c[nH]cn1` had a pKa (basic group) of 6.77.
Still for that read-out and setting: the result for `CN1CC=CC1` reads 9.92.
The same measure, in the same setting: in the case of `CCOC(=O)c1cnc2c([N+](=O)[O-])cccc2c1[O-]` it was 8.9.
The same measure, in the same setting: in the case of `CC#C[C@H](C)Oc1cc(N)c(Cl)cc1C(=O)N[C@@H]1C[C@H]2CC[C@@H](C1)N2C` it was 9.95.
As to `CC(=O)c1cccc(N)c1`, under “basic group”, the pKa worked out at 3.61.
Take `O=C(O)CS/C=C/c1ccccc1`: the pKa (acidic group) was determined as 3.5.
The compound `CC(=O)C(Cc1ccc([N+](=O)[O-])cc1)C(C)=O` showed a pKa (acidic group) of 9.54.
The same measure, in the same setting: the result for `CCCCB(O)O` reads 10.7.
The same measure, in the same setting: the result for `O=C([O-])/C=C\C(=O)NOCc1ccccc1` reads 10.
The same measure, in the same setting: in the case of `CCOc1ccc(C)c(C(=O)O)c1` it was 3.86.
Take `[NH3+]C(c1ncc[nH]1)c1ncc[nH]1`: the pKa (basic group) came out at 4.07.
Same read-out and setting: in the case of `O=[N+]([O-])c1ccc2[nH]c(CO)nc2c1` it was 2.21.
In the case of `Cc1cc(O)ccc1[N+](=O)[O-]`, where the note is “acidic group”, the pKa came to 7.65.
Still for that read-out and setting: the result for `CC(C)c1cc(O)c(=O)ccc1Br` reads 6.53.
On the same count and under the same terms, the result for `CC(=O)c1ccc([N+](=O)[O-])cc1` reads 16.6.
`O=Cc1ccccn1` returned a pKa (basic group) of 3.86.
